Results from PubChem BioAssay AID2060893 (Molecular Pharmacology Branch, DTP, NCI, 2025).

Test system: K86415-001-R-J1-PDC complex spheroids, viability
Experiment: Anticancer human tumor K86415-001-R-J1-PDC patient-derived lung adenocarcinoma cell line growth inhibition [RAS]
Conditions: for IC50: curve of first compound; for viability, T/C: stronger effect = lower value; active = viability on the fitted dose curve at most 10% of control; inactive = the rest
How it was run: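 Multi-cell-type spheroids: tumor cells plus HUVEC endothelial cells and mesenchymal stem cells. RAS-pathway inhibitors were combined with targeted agents, each dosed in half-log steps down from clinical Cmax, or from 10 microM when Cmax was unknown.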

[1] = second compound 0.00316 µM, first compound 0.0316 µM
[2] = second compound 0.00316 µM, first compound 0.1 µM
[3] = second compound 0.00316 µM, first compound 0.316 µM
[4] = second compound 0.00316 µM, first compound 1 µM
[5] = second compound 0.01 µM, first compound 0.0316 µM
[6] = second compound 0.01 µM, first compound 0.1 µM
[7] = second compound 0.01 µM, first compound 0.316 µM
[8] = second compound 0.01 µM, first compound 1 µM
[9] = second compound 0.0316 µM, first compound 0.0316 µM
[10] = second compound 0.0316 µM, first compound 0.1 µM
[11] = second compound 0.0316 µM, first compound 0.316 µM
[12] = second compound 0.0316 µM, first compound 1 µM
[13] = second compound 0.1 µM, first compound 0.0316 µM
[14] = second compound 0.1 µM, first compound 0.1 µM
[15] = second compound 0.1 µM, first compound 0.316 µM
[16] = second compound 0.1 µM, first compound 1 µM
[17] = second compound 0.316 µM, first compound 0.0316 µM
[18] = second compound 0.316 µM, first compound 0.1 µM
[19] = second compound 0.316 µM, first compound 0.316 µM
[20] = second compound 0.316 µM, first compound 1 µM
[21] = second compound 1 µM, first compound 0.0316 µM
[22] = second compound 1 µM, first compound 0.1 µM
[23] = second compound 1 µM, first compound 0.316 µM
[24] = second compound 1 µM, first compound 1 µM
[25] = second compound 0.00316 µM, first compound 3.16 µM
[26] = second compound 0.00316 µM, first compound 10 µM
[27] = second compound 0.01 µM, first compound 3.16 µM
[28] = second compound 0.01 µM, first compound 10 µM
[29] = second compound 0.0316 µM, first compound 3.16 µM
[30] = second compound 0.0316 µM, first compound 10 µM
[31] = second compound 0.1 µM, first compound 3.16 µM
[32] = second compound 0.1 µM, first compound 10 µM
[33] = second compound 0.316 µM, first compound 3.16 µM
[34] = second compound 0.316 µM, first compound 10 µM
[35] = second compound 1 µM, first compound 3.16 µM
[36] = second compound 1 µM, first compound 10 µM
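Also: spheroids exposed to agents for seven days before readout.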

CCN1CCN(Cc2ccc(Nc3ncc(F)c(-c4cc(F)c5nc(C)n(C(C)C)c5c4)n3)nc2)CC1 + C=CC(=O)N1CCN(c2nc(OCC3CCCN3C)nc3c(F)c(-c4nc(N)cc(C)c4C(F)(F)F)c(Cl)cc23)C(C)C1
inactive: viability, T/C (second compound 0.00316 µM, first compound 0.00316 µM) 17.1% | viability, T/C (second compound 0.00316 µM, first compound 0.01 µM) 15.9% | viability, T/C [1] 13.3% | viability, T/C [2] 15% | viability, T/C [3] 18.7% | viability, T/C [4] 33.9% | viability, T/C (second compound 0.01 µM, first compound 0.00316 µM) 10.3% | viability, T/C (second compound 0.01 µM, first compound 0.01 µM) 11.2% | viability, T/C [5] 12.3% | viability, T/C [6] 10.7% | viability, T/C [7] 13.3% | viability, T/C [8] 24.8% | viability, T/C (second compound 0.0316 µM, first compound 0.00316 µM) 9.79% | viability, T/C (second compound 0.0316 µM, first compound 0.01 µM) 12.9% | viability, T/C [9] 11% | viability, T/C [10] 10.2% | viability, T/C [11] 11% | viability, T/C [12] 18.5% | viability, T/C (second compound 0.1 µM, first compound 0.00316 µM) 10.1% | viability, T/C (second compound 0.1 µM, first compound 0.01 µM) 10.5% | viability, T/C [13] 9.47% | viability, T/C [14] 8.04% | viability, T/C [15] 10.6% | viability, T/C [16] 14.2% | viability, T/C (second compound 0.316 µM, first compound 0.00316 µM) 9.47% | viability, T/C (second compound 0.316 µM, first compound 0.01 µM) 8.55% | viability, T/C [17] 9.15% | viability, T/C [18] 9.51% | viability, T/C [19] 12.2% | viability, T/C [20] 17.6% | viability, T/C (second compound 1 µM, first compound 0.00316 µM) 9.7% | viability, T/C (second compound 1 µM, first compound 0.01 µM) 11.8% | viability, T/C [21] 11.7% | viability, T/C [22] 10.2% | viability, T/C [23] 11.2% | viability, T/C [24] 18.3%
< 3.16 nM: IC50 (second compound 0.00316 µM) | IC50 (second compound 0.01 µM) | IC50 (second compound 0.0316 µM) | IC50 (second compound 0.1 µM) | IC50 (second compound 0.316 µM) | IC50 (second compound 1 µM)

C[C@@H](NC(=O)c1ncnc(N)c1Cl)c1ncc(C(=O)Nc2cc(C(F)(F)F)c(Cl)cn2)s1 + C=CC(=O)N1CCN(c2nc(OCC3CCCN3C)nc3c(F)c(-c4nc(N)cc(C)c4C(F)(F)F)c(Cl)cc23)C(C)C1
< 31.6 nM: IC50 (second compound 0.00316 µM) | IC50 (second compound 0.01 µM) | IC50 (second compound 0.0316 µM) | IC50 (second compound 0.1 µM) | IC50 (second compound 0.316 µM) | IC50 (second compound 1 µM)
inactive: viability, T/C [1] 24.3% | viability, T/C [2] 23.5% | viability, T/C [3] 23.3% | viability, T/C [4] 25.3% | viability, T/C [25] 19% | viability, T/C [26] 17.7% | viability, T/C [5] 14.8% | viability, T/C [6] 14.6% | viability, T/C [7] 14.2% | viability, T/C [8] 14.6% | viability, T/C [27] 20% | viability, T/C [28] 14% | viability, T/C [9] 12% | viability, T/C [10] 11.7% | viability, T/C [11] 10.3% | viability, T/C [12] 10.8% | viability, T/C [29] 11.4% | viability, T/C [30] 10.2% | viability, T/C [13] 13.1% | viability, T/C [14] 10.6% | viability, T/C [15] 14.1% | viability, T/C [16] 10.8% | viability, T/C [31] 9.5% | viability, T/C [32] 9.83% | viability, T/C [17] 10.6% | viability, T/C [18] 11.1% | viability, T/C [19] 10.8% | viability, T/C [20] 10.8% | viability, T/C [33] 10.5% | viability, T/C [34] 10.7% | viability, T/C [21] 10.6% | viability, T/C [22] 13% | viability, T/C [23] 13.4% | viability, T/C [24] 11.6% | viability, T/C [35] 10.8% | viability, T/C [36] 11.1%

Cc1nc(N2CCC3(CC2)COC(C)C3N)c(CO)nc1Sc1ccnc(N)c1Cl (stereo unspecified) + C=CC(=O)N1CCN(c2nc(OCC3CCCN3C)nc3c(F)c(-c4nc(N)cc(C)c4C(F)(F)F)c(Cl)cc23)C(C)C1
< 31.6 nM: IC50 (second compound 0.00316 µM) | IC50 (second compound 0.01 µM) | IC50 (second compound 0.0316 µM) | IC50 (second compound 0.1 µM) | IC50 (second compound 0.316 µM) | IC50 (second compound 1 µM)
inactive: viability, T/C [1] 11.5% | viability, T/C [5] 12.1%
active: viability, T/C [2] 8.95% | viability, T/C [3] 6.72% | viability, T/C [4] 5.03% | viability, T/C [25] 3.59% | viability, T/C [26] 4.75% | viability, T/C [6] 8.08% | viability, T/C [7] 5.96% | viability, T/C [8] 4.7% | viability, T/C [27] 4.74% | viability, T/C [28] 5.17% | viability, T/C [9] 9.15% | viability, T/C [10] 6.95% | viability, T/C [11] 4.4% | viability, T/C [12] 3.81% | viability, T/C [29] 3.74% | viability, T/C [30] 3.64% | viability, T/C [13] 8.22% | viability, T/C [14] 5.86% | viability, T/C [15] 5.7% | viability, T/C [16] 3.75% | viability, T/C [31] 4.37% | viability, T/C [32] 3.87% | viability, T/C [17] 7.37% | viability, T/C [18] 6.35% | viability, T/C [19] 4.21% | viability, T/C [20] 4.09% | viability, T/C [33] 4.08% | viability, T/C [34] 3.28% | viability, T/C [21] 7.46% | viability, T/C [22] 7.12% | viability, T/C [23] 6.04% | viability, T/C [24] 4.71% | viability, T/C [35] 4.06% | viability, T/C [36] 4.08%
